# Entries after “also recorded” stand apart in the source; their conditions may differ.
# Legend:
# [1] = system: subjects with remission phase Type I diabetes; test: Sustacal meal with lower-dose GLIP infusion (Example 3); assay type: in vivo, human; details: infusion 0.75 pmol/kg/min for 120 minutes after Sustacal meal, versus saline infusion; FIG. 3
# Experimental: Four subjects with remission phase Type I diabetes were studied during infusion with 0.75 pm/kg/min-GLIP for 120 minutes after a Sustacal meal.
# The test was conducted as described in Example 1 and blood glucose and C-peptice levels were measured. On a further test day, the subjects were studied during saline infusion after a similar Slistacal meal.
# humans and other mammals = details: cited from earlier work
# Type II diabetics = details: cited from earlier work
# [2] = system: subjects with remission phase Type I diabetes; test: Sustacal meal with intravenous GLIP infusion (Example 1); assay type: in vivo, human
# Experimental: 7 subjects with remission phase Type I diabetes were studied after ingestion of a standardised meal of Sustacal (Upjohn) (delivering […]). Subjects continued their normal insulin treatment programme on the day prior to the test and, on the day of the test, omitted their morning insulin injection and arrived fasting at 8:00 am. […] Infusion was continued for 120 minutes. Blood levels of glucose, C-peptide, gastrin, glucagon and HPP were monitored by standard radioimmunoassay methods in samples taken before and at intervals during the study, up to 180 minutes. On another test day, subjects were given the Sustacal meal alone and the same analytes were similarly monitored.
# Type 1 diabetic subject = test: Subcutaneous GLIP along with insulin before Sustacal meal (Example 6)
# Experimental: One Type 1 diabetic subject was given GLIP along with insulin and the effects on post-prandial glycaemia observed. The subject received 5 units of insulin and 50 μg GLIP as subcutaneous injections immediately prior to ingestion of a Sustacal meal as described in Example 1. Blood levels of GLIP were monitored by a standard radioimmunoassay method.
# normal volunteers = test: Sustacal meal preceded by subcutaneous GLIP in normal volunteers (Example 4); assay type: in vivo, human
# Source text: Results are shown in FIG. 4. *indicates statistically significant differences between treatments (p<0.05).
# Type I diabetic subjects = test: Sustacal meal preceded by subcutaneous GLIP in Type I diabetics (Example 5); assay type: in vivo, human; details: 100 μg GLIP subcutaneously prior to Sustacal meal
# Source text: Type I diabetic subjects were studied.
# The results are shown in FIG. 5. indicates statistically significant differences between treatments (p<0.05).
# [3] = subcutaneous injection of 00 gg GLIP immediately before Sustacal meal
substance,measurement,setting,value
Glucagon-like peptide 1(7-36)amide [GLIP],increase in blood glucose,[1],increase in glucose was less than in the control experiment
same,rise in C-peptide,[1],rise in C-peptide was similar to the control experiment
same,gastric emptying,humans and other mammals,delay of gastric emptying
same,effect between the peptide and oral hypoglycaemic agents,Type II diabetics,synergistic effect
same,gastrin response / gastrin levels,"[2]; IV infusion 1.2 pm/kg/min after Sustacal meal, FIG. 1 Panel E",normal ga.trin response; also recorded: not significantly affected
same,blood glucose level after a meal,"[2]; IV infusion 1.2 pm/kg/min for 120 minutes after Sustacal meal, FIG. 1 Panel A",excellent control of blood glucose level
same,secretion of pancreatic polypeptide (PP) after Sustacal meal,"[2]; IV infusion 1.2 pm/kg/min, FIG. 1 Panel C",this response was absent during GLIP infusion
same,clearance of GLIP from the blood,"Type 1 diabetic subject; 50 μg GLIP subcutaneously with 5 units insulin, radioimmunoassay, FIG. 6 Panel E",cleared from the blood in about two hours
same,blood glucose after standard meal,"Type 1 diabetic subject; 50 gg GLIP with 5 units insulin (half the usual dose) subcutaneously before Sustacal meal, one subject, FIG. 6 Panel A",≤ 8 mM
same,"delays in increase in blood levels of glucose, HPP, C-peptide and insulin",normal volunteers; experiment repeated with 50 Ag dose of GLIP,proportionally shorter
same,"delays in increase in blood levels of glucose, HPP, C-peptide and insulin",normal volunteers; experiment repeated with 200 Ag dose of GLIP,longer
same,increase in blood levels of C-peptide,normal volunteers; [3],delay in increase
same,increase in blood levels of HPP,normal volunteers; [3],delay in increase
same,increase in blood levels of glucose,normal volunteers; [3],delay in increase
same,increase in blood levels of insulin,normal volunteers; [3],delay in increase
same,blood glucose levels compared to control (no GLIP),"Type I diabetic subjects; morning insulin omitted, FIG. 5 Panel A",lowering of blood glucose levels
same,pancreatic polypeptide (HPP) levels,Type I diabetic subjects; FIG. 5 Panel D,delayed rise in pancreatic polypeptide (HPP) levels
same,insulin secretion over control levels,Type I diabetic subjects; FIG. 5 Panels B and C,no enhancement of insulin secretion over control levels

# From patent publication US20020119146A1, “TREATMENT OF DIABETES” (priority 1994, published 2002)
